{"source": "patent US20220280447A1", "about": "“COMPOSITIONS AND METHODS FOR IMPROVING BRAIN FUNCTION” (HEALTH VIA MODERN NUTRITION INC., priority 2021, published 2022)", "origin": "cited, not measured here", "key": {"[1]": {"details": "rats fed diet supplemented as 30% of calories"}, "[2]": {"test_system": "adenosine A1 receptors"}, "[3]": {"details": "animal models"}, "[4]": {"details": "Alzheimer's disease transgenic mice"}, "[5]": {"test_system": "reactive oxygen species (ROS) production by mitochondria", "details": "in vitro"}, "[6]": {"details": "in vitro studies"}, "[7]": {"details": "animal studies"}, "[8]": {"details": "teenagers with social anxiety disorders"}, "[9]": {"details": "Schizophrenia-like rat model"}, "[10]": {"test_system": "NF-icB activation", "details": "in vitro"}, "[11]": {"details": "children"}, "[12]": {"details": "20-month oral administration, patient with Alzheimer's disease dementia"}}, "note": "Read-outs that look alike come from different tables or passages of the source.", "data": [{"smiles": "C[C@@H](O)CCOC(=O)C[C@@H](C)O", "note": "[(R)-3-hydroxyburyl (R)-3-hydroxybutyrate]", "values": [{"measurement": "cognitive and physical performance", "setting": "[1]", "result": "improved cognitive and physical performance"}]}, {"smiles": "C=C(C)[C@@H]1CCC(C)=C[C@H]1c1c(O)cc(CCCCC)cc1O", "note": "[CBD, cannabidiol]", "values": [{"measurement": "effect on adenosine A1 receptors", "setting": "[2]", "result": "affect adenosine A1 receptors"}, {"measurement": "anti-anxiety and antidepressant effects", "setting": "[3]", "result": "anti-anxiety and antidepressant effects"}, {"measurement": "development of a social recognition deficit", "setting": "[4]", "result": "prevent the development of a social recognition deficit"}, {"measurement": "reactive oxygen species (ROS) production by mitochondria", "setting": "[5]", "result": "inhibits"}, {"measurement": "anti-inflammatory properties", "setting": "[6]", "result": "strong anti-inflammatory properties"}, {"measurement": "anti-inflammatory properties", "setting": "[7]", "result": "strong anti-inflammatory properties"}, {"measurement": "anxiolytic effect", "setting": "[8]", "result": "anxiolytic effect"}, {"measurement": "cognitive impairment", "setting": "[9]", "result": "improve cognitive impairment"}, {"measurement": "cortical transcriptional changes", "setting": "[9]", "result": "reverse cortical transcriptional changes"}, {"measurement": "NF-icB activation", "setting": "[10]", "result": "inhibits"}, {"measurement": "treatment of certain seizure disorders", "setting": "[11]", "result": "effective"}]}, {"smiles": "C[C@@H](O)CCOC(=O)C[C@@H](C)O", "note": "[ketone monoester]", "values": [{"measurement": "mood, affect, self-care, cognitive and daily activity performance", "setting": "[12]", "result": "improved markedly"}]}]}
